Experimental data as given in PMC3410885, “6-Arylpyrido[2,3-d]pyrimidines as Novel ATP-Competitive Inhibitors of Bacterial D-Alanine:D-Alanine Ligase” (PLoS ONE, 2012).
Values after ≈ are worked out from the molar mass of the structure shown. Where two headings read alike, the source gives them in different places.

Experiments:
E. coli DdlB = biological target: T1, E. coli DdlB (Escherichia coli, UniProt P07862); test: Colorimetric malachite green inhibition assay of DdlB; assay type: biochemical; settings: for IC50: malachite green assay, 700 μM D-Ala, 500 μM ATP, 37°C, 20 min, read-out: inhibitory activity on DdlB: IC50
T1 construct: polyhistidine (His) tag (N); made in house; host or cells: E. coli BL21(λDE3), vector pQE-30 UA (Qiagen)
Method: All of the synthesized 6-arylpyrido[2,3-d]pyrimidines 11–36 were assayed for in vitro inhibitory activity on E. coli DdlB by detecting orthophosphate generated during the enzymatic reaction using a Malachite green assay.
Inhibition of DdlB was measured at different inhibitor and ATP concentrations in order to determine Ki values and the mode-of-action of both compounds.
The target compounds were tested for their ability to inhibit the D-Ala-adding activity of DdlB ligase with the colorimetric malachite green method in which orthophosphate generated during the reaction is measured. Each compound was tested in duplicate at 100, 250 or 500 μM in a mixture, final volume 50 μL, containing 50 mM Hepes (pH 8.0), 5 mM MgCl2, 10 mM (NH4)2SO4, 10 mM KCl, 700 μM D-Ala, 500 μM ATP, purified His-tagged DdlB (diluted in 50 mM Hepes (pH 7.2) and 1 mM DTT) and the test compound dissolved in DMSO. The final concentration of DMSO was 5% (v/v). The reaction mixture was incubated at 37°C for 20 min, then quenched with 100 μL of Biomol reagent and absorbance at 650 nm was measured after 5 min. To exclude possible promiscuous inhibitors, all compounds were tested in the presence of Triton-114 (0.005%). Residual activities were calculated relative to control assays without the compounds and with DMSO.

DdlB = biological target: T2, DdlB (Escherichia coli, UniProt P07862); test: Surface plasmon resonance binding to immobilised DdlB; settings: steady-state affinity model; 25°C; 50 mM Hepes, 150 mM NaCl, 5% DMSO; read-out: KD (SPR)
T2 construct: polyhistidine (His) tag (N); made in house; host or cells: E. coli BL21(λDE3), vector pQE-30 UA (Qiagen)
Method: The binding of the compounds 11, 13, 14, 24, 27, 33, and 35 to the target enzyme was confirmed using surface plasmon resonance (SPR) (Figure 10). Experiments were performed at conditions that enable long term stability of the enzyme. […] The enzyme was covalently attached to the surface of a sensor chip CM5 and compounds were titrated over the surface. The binding of all the compounds was characterised by fast association and dissociation rates. Equilibrium affinity constants, estimated from the steady-state binding levels are in agreement with enzymatic studies and ITC. In addition, the binding of other compounds was tested but insufficient solubility at higher concentrations of analytes in the running buffer precluded analysis.
Figure 10 SPR analysis of compounds binding to DdlB. Different concentrations of compounds were tested for the binding (left panels in all cases). The binding curves (right panels) were generated by ploting steady-state response levels, i.e. at the end of the association phase, vs concentration of the injected compound. For each compound 3–5 independent titrations were performed.
The binding constants were obtained by using a Biacore T100 (Biacore, GE Healthcare, USA). […] Two 1 min injections of 50 μg/ml DdlB diluted in 10 mM Na-acetate, pH 4.0 were applied on the second flow cell. The first flow cell was left unmodified and served as a control for non-specific binding of tested compounds. The remaining active groups on the surface of both flow cells were deactivated with a 7-min injection of ethanolamine. The level of immobilized enzyme was around 10000 response units.
Each analyte was titrated, with 3 or 4 repetitions, using different concentrations according to their solubility in running buffer (50 mM Hepes, 150 mM NaCl, 5% DMSO, pH 7.4), usually from 0,781 μM to 500 μM. One concentration was repeated at the end of the assay in each dilution series, in order to check the surface stability and repeatability. The association lasted 60 seconds at a flow-rate 30 μl/min. No regeneration was needed. All experiments were performed at 25°C. Sensorgrams were double referenced by subtracting the signal obtained in the empty flow cell and the injection of the buffer. The steady-state response levels were fitted using the Steady State Affinity model in Biacore T100 Evaluation software.

E. coli 1411 = test: MIC by broth microdilution, E. coli 1411; assay type: cell-based; settings: for MIC: Escherichia coli, 1411, read-out: MIC 1411; for MIC 1411 +PMBN: with polymyxin B nonapeptide (4 μg/ml)
Method: (§1) Selected DdlB inhibitors were tested for their antibacterial activity against two E. coli strains E. coli 1411 and E. coli AB734 (Table 2). […] Additionally, growth inhibition of efflux pump-deficient strains SM1411 (acrAB deficient derivative of 1411) and ES100 (tolC deficient derivative of AB734) was measured, and MICs were repeated for each strain in the presence of polymyxin B nonapeptide (PMBN) to assess the impact of outer-membrane permeability on antimicrobial activity.
(§2) Minimum inhibitory concentrations (MICs) were determined by broth microdilution against E. coli 1411, SM1411 (acrAB deficient derivative of 1411), AB734 and ES100 (tolC deficient derivative of AB734) according to CLSI guidelines. MICs were repeated for each strain in the presence of polymyxin B nonapeptide (4 μg/ml) to assess the impact of outer-membrane permeability on antimicrobial activity.

[1] = test system: SM1411 (acrAB deficient derivative of 1411); test: MIC by broth microdilution, SM1411; assay type: cell-based, E. coli; settings: for MIC: Escherichia coli, read-out: MIC SM1411 (acrAB); for MIC SM1411 +PMBN: with polymyxin B nonapeptide (4 μg/ml)
Method: as §1, §2

[2] = test system: ES100 (tolC deficient derivative of AB734); test: MIC by broth microdilution, ES100; assay type: cell-based, E. coli; settings: for MIC: Escherichia coli, read-out: MIC ES100 (tolC); for MIC ES100 +PMBN: with polymyxin B nonapeptide (4 μg/ml)
Method: as §1, §2

E. coli AB734 = test: MIC by broth microdilution, E. coli AB734; assay type: cell-based; settings: for MIC: Escherichia coli; for MIC AB734 +PMBN: with polymyxin B nonapeptide (4 μg/ml)
Method: as §1, §2

[3] = test system: E. coli strains (1411, AB734, SM1411, ES100); test: Antibacterial activity stated for the E. coli strains together; assay type: cell-based; settings: for antibacterial activity (in words): efflux-deficient, permeabilised cells
Method: as §1, §2

Compound | melting point [°C] | IC50 (E. coli DdlB) [µM] | MIC (E. coli 1411) [µg/mL] | MIC 1411 +PMBN (E. coli 1411) [µg/mL] | MIC [1] [µg/mL] | MIC SM1411 +PMBN [1] | MIC [2] [µg/mL] | MIC ES100 +PMBN [2] | MIC AB734 +PMBN (E. coli AB734) [µg/mL] | other results
Nc1ncc2cc(-c3ccccc3)c(N)nc2n1 [Compound 11, 6-phenylpyrido[2,3-d]pyrimidine-2,7-diamine] | > 300 | 1140 | – | – | – | – | – | – | – | Kd (DdlB): 150 ± 33.1 µM
COc1cc(OC)cc(-c2cc3cnc(N)nc3nc2N)c1 [Compound 13, 6-(3,5-dimethoxyphenyl)pyrido[2,3-d]pyrimidine-2,7-diamine] | – | 908 | > 256 | >256 | > 256 | 128 µg/mL (≈ 431 µM) | > 256 | 64 µg/mL (≈ 215 µM) | >256 | MIC (E. coli AB734; AB734, read-out: MIC AB734): > 256 µg/mL
COc1cc(OC)cc(-c2cc3cnc(NCCCN4CCOCC4)nc3nc2N)c1 [Compound 15, 6-(3,5-dimethoxyphenyl)-N2-(3-morpholinopropyl)pyrido[2,3-d]pyrimidine-2,7-diamine] | 146 to 148 | – | – | – | – | – | – | – | – | –
COc1cc(OC)cc(-c2cc3cnc(NCCCN4CCOCC4)nc3nc2NC(=O)NC(C)(C)C)c1 [Compound 16, 1-tert-butyl-3-(6-(3,5-dimethoxyphenyl)-2-(3-morpholinopropylamino)pyrido[2,3-d]pyrimidin-7-yl)urea] | – | 133 | > 256 | >256 | > 256 | 128 µg/mL (≈ 244 µM) | > 256 | 128 µg/mL (≈ 244 µM) | >256 | fold improved IC50 against DdlB compared to lead compound 33 (E. coli DdlB; ratio of IC50 values, 16 against 33): 3.4 fold; antibacterial activity (in words) [3]: weak antibacterial activity; MIC (E. coli AB734; AB734, read-out: MIC AB734): > 256 µg/mL
COc1cc(OC)cc(-c2cc3cnc(NCCCN(C)C)nc3nc2N)c1 [Compound 17, 6-(3,5-dimethoxyphenyl)-N2-(3-(dimethylamino)propyl)pyrido[2,3-d]pyrimidine-2,7-diamine] | 92 to 95 | – | – | – | – | – | – | – | – | –
Nc1ncc2cc(-c3cc(C(F)(F)F)cc(C(F)(F)F)c3)c(N)nc2n1 [Compound 18, 6-(3,5-bis(trifluoromethyl)phenyl)pyrido[2,3-d]pyrimidine-2,7-diamine] | > 300 | – | – | – | – | – | – | – | – | –
CC(C)(C)NC(=O)Nc1nc2nc(N)ncc2cc1-c1cc(C(F)(F)F)cc(C(F)(F)F)c1 [Compound 19, 1-(2-amino-6-(3,5-bis(trifluoromethyl)phenyl)pyrido[2,3-d]pyrimidin-7-yl)-3-tert-butylurea] | – | 260 | > 256 | >256 | > 256 | >256 µg/mL | > 256 | 64 µg/mL (≈ 135 µM) | >256 | antibacterial activity (in words) [3]: weak antibacterial activity; MIC (E. coli AB734; AB734, read-out: MIC AB734): > 256 µg/mL
Nc1ncc2cc(-c3cc(F)cc(F)c3)c(N)nc2n1 [Compound 20, 6-(3,5-difluorophenyl)pyrido[2,3-d]pyrimidine-2,7-diamine] | > 300 | – | – | – | – | – | – | – | – | –
Nc1ncc2cc(-c3cc(Cl)cc(Cl)c3)c(N)nc2n1 [Compound 22, 6-(3,5-dichlorophenyl)pyrido[2,3-d]pyrimidine-2,7-diamine] | > 300 | – | – | – | – | – | – | – | – | MIC ([3]; Escherichia coli, read-out: MICs against all strains): > 256 µg/mL
CC(C)(C)NC(=O)Nc1nc2nc(N)ncc2cc1-c1cc(Cl)cc(Cl)c1 [Compound 23, 1-(2-amino-6-(3,5-dichlorophenyl)pyrido[2,3-d]pyrimidin-7-yl)-3-tert-butylurea] | 179 to 182 | 383 | > 256 | >256 | > 256 | 32 µg/mL (≈ 79 µM) | > 256 | 16 µg/mL (≈ 39.5 µM) | >256 | antibacterial activity (in words) [3]: weak antibacterial activity; MIC (E. coli AB734; AB734, read-out: MIC AB734): > 256 µg/mL
Nc1ncc2cc(-c3c(F)cccc3F)c(N)nc2n1 [Compound 24, 6-(2,6-difluorophenyl)pyrido[2,3-d]pyrimidine-2,7-diamine] | > 300 | 1110 | 64 (≈ 234 µM) | 16 (≈ 58.6 µM) | 64 (≈ 234 µM) | 8 µg/mL (≈ 29.3 µM) | 16 (≈ 58.6 µM) | 8 µg/mL (≈ 29.3 µM) | 16 (≈ 58.6 µM) | MIC 1411 (E. coli 1411; without PMBN): 64 µg/mL (≈ 234 µM); MIC (E. coli AB734; AB734, without PMBN, read-out: MIC AB734): 64 µg/mL (≈ 234 µM); MIC AB734 (E. coli AB734; without PMBN): 64 µg/mL (≈ 234 µM); Kd (DdlB): 103 ± 7.8 µM
Nc1ncc2cc(-c3c(Cl)cccc3Cl)c(N)nc2n1 [Compound 26, 6-(2,6-dichlorophenyl)pyrido[2,3-d]pyrimidine-2,7-diamine] | – | 529 | – | – | 2 (≈ 6.53 µM) | 0,5 μg/ml | 1 (≈ 3.27 µM) | 0,25 μg/ml | – | –
Nc1nc2nc(NCCCN3CCOCC3)ncc2cc1-c1c(Cl)cccc1Cl [Compound 28, 6-(2,6-dichlorophenyl)-N2-(3-morpholinopropyl)pyrido[2,3-d]pyrimidine-2,7-diamine] | 124 to 127 | – | – | – | – | – | – | – | – | –
CN(C)CCCNc1ncc2cc(-c3c(Cl)cccc3Cl)c(N)nc2n1 [Compound 30, 6-(2,6-dichlorophenyl)-N2-(3-(dimethylamino)propyl)pyrido[2,3-d]pyrimidine-2,7-diamine] | 241 to 244 | – | – | – | – | – | – | – | – | –
Nc1ncc2cc(-c3c(F)cccc3Cl)c(N)nc2n1 [Compound 31, 6-(2-chloro-6-fluorophenyl)pyrido[2,3-d]pyrimidine-2,7-diamine] | > 300 | – | – | – | – | – | – | – | – | –
CC(C)(C)NC(=O)Nc1nc2nc(N)ncc2cc1-c1c(F)cccc1Cl [Compound 32, 1-(2-amino-6-(2-chloro-6-fluorophenyl)pyrido[2,3-d]pyrimidin-7-yl)-3-tert-butylurea] | > 300 | – | – | – | – | – | – | – | – | –
CC(C)(C)NC(=O)Nc1nc2nc(N)ncc2cc1-c1c(Br)cccc1Br [Compound 34, 1-(2-amino-6-(2,6-dibromophenyl)pyrido[2,3-d]pyrimidin-7-yl)-3-tert-butylurea] | – | 583 | > 256 | 32 (≈ 64.8 µM) | > 256 | 4 µg/mL (≈ 8.09 µM) | 4 (≈ 8.09 µM) | 0,5 μg/ml | 32 (≈ 64.8 µM) | antibacterial activity (in words) [3]: weak antibacterial activity; MIC (E. coli AB734; AB734, read-out: MIC AB734): > 256 µg/mL
CC(C)(C)NC(=O)Nc1nc2nc(N)ncc2cc1-c1ccc2c(c1)OCO2 [Compound 36, 1-(2-amino-6-(benzo[d][1,3]dioxol-5-yl)pyrido[2,3-d]pyrimidin-7-yl)-3-tert-butylurea] | > 300 | – | – | – | – | – | – | – | – | –
